Experimental data from US6337348B1, “Oxy-vanadium (iv) complexes having spermicidal activity” (Parker Hughes Institute, priority 1998, dated 2002).

How the values were obtained:
Assay type in all cases: cell-based
human sperm [1] = assay: FITC-Annexin V surface binding flow cytometry; conditions: 100 μM, 12 hours, 37° C.
Experimental: In order to examine the expression of phosphatidyl serine on the sperm surface following oxovanadium (IV) complex exposure, surface binding of FITC-Annexin V was evaluated by flow cyotometry as described in Vermes et al., 1995, J. Immunol. Meth., […]:39-51. One ml aliquots of highly motile sperm (10^7) in triplicate were incubated in BWW−0.3% BSA at 37° C. for 12 hours with and without 100 μM of each of the oxovanadium (IV) complexes VO(phen), VO(phen)2, VO(Me2—phen), VO(Me2—phen)2, VO(Cl—phen), VO(Cl—phen)2, VO(bipy), VO(bipy)2, VO(Me2—bipy), VO(Me2—bipy)2, and VO(Br,OH—acph)2 in 0.1% DMSO. After exposure to these complexes, sperm were washed with 1% Tyrode's salt solution containing 1% BSA (1% TBSA), and the pellets were resuspended in the same medium. The sperm suspension was reacted for 30 minutes at room temperature with 6 μg/ml of FITC-conjugated recombinant human Annexin V (Caltag Laboratories, San Francisco, Calif.). After two washes in Tyrode's salt solution, sperm were resuspended in 1% TBSA containing 1 μg/ml propidium iodide (PI) and analyzed for surface-bound Annexin V and PI-permeability by quantitative flow cytometry using an argon laser for excitation of fluorescence. Annexin V and PI binding were simultaneously measured in oxovanadium (IV) complex-exposed and control sperm as described previously (de Lamirande et al., 1993, Fertil Seril 59:1291-1295). The percentages of sperm positive for Annexin V and PI were determined using the cutoff signals for membrane-intact motile sperm. Two separate experiments were performed to assess the surface expression of phosphatidyl serine following exposure of sperm to oxovanadium (IV) complexes.

human sperm [2] = assay: DNA fragmentation by in situ nick-end labeling (TUNEL) flow cytometry; conditions: 100 μM, 24 hours, 37° C.
Experimental: A flow cytometric two-color terminal deoxynucleotidyl transferase (TdT) assay was employed to detect apoptotic sperm nuclei by TdT-mediated dUTP nick-end labeling (TUNEL, as described in Gavrieli et al., 1992, J. Cell Biol., 119:493-501). The comparative effect of the oxovanadium (IV) complexes, VO(phen), VO(phen)2, VO(Me2—phen), VO(Me2—phen)2, VO(Cl—phen), VO(Cl—phen)2, VO(bipy), VO(bipy)2, VO(Me2—bipy), VO(Me2—bipy)2, and VO(Br,OH—acph)2, to induce apoptosis was tested by incubating 1 ml duplicate aliquots of motile sperm (10^7/ml) in BWW−0.3% BSA at 37° C. for 24 hours with and without 100 μM each of the test compounds. Sperm were washed in phosphate-buffered saline (PBS)−1% BSA, fixed in 4% paraformaldehyde in PBS for 15 minutes. Following two washings in PBS, they were permeabilized with 0.1% Triton X-100 in 0.1% sodium citrate for 2 minutes on ice, and washed twice with PBS. New 3′-hydroxyl (3′—OH) end labeling of fragmented sperm nuclear DNA was performed using TdT and detected by fluorescein (FITC)-conjugated uridine triphosphate (dUTP) according to the manufacturer's recommendations (Boehringer-Mannheim, Indianapolis, Ind.). Sperm aliquots incubated without TdT enzyme served as a negative control. […] Oxovanadium (IV)-induced apopotosis of sperm was shown by an increase in the number of cells staining with FITC- dUTP (M2 gates). The M1 and M2 gates were used to demarcate non-apoptotic and apoptotic PI-counterstained sperm populations, respectively. Two separate experiments were performed to assess dUTP incorporation following exposure of sperm to oxovanadium (IV) complexes.

human sperm [3] = assay: Kinetics of sperm immobilization (timed CASA); conditions: for T½ of sperm immobilization (time for 50% motility loss): 200 μM, 37° C.
Experimental: To test the effect of duration of incubation on sperm immobilization in the presence of oxovanadium (IV) complexes, a motile fraction of sperm 10^7/ml) was incubated at 37° C. in 1 ml of BWW−0.3% BSA in the presence of 200 μM each of the complexes or 0.2% DMSO alone. At timed intervals (every 5 and 10 minutes) aliquots (4 μl) were transferred to two 20 μm Microcell (Conception Technologies) chambers, and sperm motility was assessed by CASA.
For CASA, 4 μl each of sperm suspension was loaded into two 20 μm Microcell chambers placed onto a counting chamber at 37° C. At least 5-8 fields per chamber were scanned for analysis using a Hamilton Thorne Integrated Visual Optical System (IVOS) version 10 instrument (Hamilton Thorne Research Inc., Danvers, Mass.). Each field was recorded for 30 seconds. The Hamilton Thorne computer calibrations were set at 30 frames at a frame rate of 30 images/seconds. Other settings were as follows: minimum contrast 8; minimum size 6; low-size gate, 1.0; high-size gate,2.9; low-intensity gate, 0.6; high-intensity gate, 1.4; phase-contrast illumination; low path velocity at 10 μm/seconds and threshold straightness at 80%; magnification factor, 1.95. The performance of the analyzer was periodically checked using the playback function.

Compound	Annexin V positive sperm (%) (human sperm [1])	TUNEL positive sperm (%) (human sperm [2])	time of exposure to complete sperm motility loss (human sperm [3])	T½ of sperm immobilization (time for 50% motility loss) (human sperm [3])	Annexin V positive sperm (%) (human sperm [1]; listed as VO(Cl—phen)2)	TUNEL positive sperm (%) (human sperm [2]; listed as VO(Cl—phen)2)
(aqua)bis(4,4′-dimethyl-2,2′-bipyridyl)oxovanadium (IV) sulfate [VO(Me2-bipy)2]	78%	63%				
O.O.O=S(=O)([O-])[O-].[O]=[V+2].c1ccc(-c2ccccn2)nc1 [VO(bipy), (diaqua)(2,2′-bipyridyl)oxovanadium (IV) sulfate]	36%	43%				
(diaqua)(4,4′-dimethyl-2,2′-bipyridyl)oxovanadium (IV) sulfate [VO(Me2-bipy)]	47%	45%				
Clc1cc2cccnc2c2ncccc12.O.O.O=S(=O)([O-])[O-].[O]=[V+2] [VO(Cl-phen), (diaqua)(5-chloro-1,10-phenanthroline)oxovanadium (IV) sulfate]	90%	95%				
Clc1cc2cccnc2c2ncccc12.Clc1cc2cccnc2c2ncccc12.O.O=S(=O)([O-])[O-].[O]=[V+2] [VO(Cl-phen)2, (aqua)bis(5-chloro-1,10-phenanthroline)oxovanadium (IV) sulfate]	99%	97%	≤ 10 min	7.3 min	99%	Greater than 97%
O.O.O=S(=O)([O-])[O-].[O]=[V+2].c1cnc2c(c1)ccc1cccnc12 [VO(phen), (diaqua)(1,10-phenanthroline)oxovanadium (IV) sulfate]	97%	98%				
O.O=S(=O)([O-])[O-].[O]=[V+2].c1cnc2c(c1)ccc1cccnc12.c1cnc2c(c1)ccc1cccnc12 [VO(phen)2, (aqua)bis(1,10-phenanthroline)oxovanadium (IV) sulfate]	98%	98%				
Cc1ccnc2c1ccc1c(C)ccnc12.Cc1ccnc2c1ccc1c(C)ccnc12.O.O=S(=O)([O-])[O-].[O-2].[V+4] [VO(Me2-phen)2, (aqua)bis(4,7-dimethyl-1,10-phenanthroline)oxovanadium (IV) sulfate]	17%	94%				
bis(5′-bromo-2′-hydroxyacetophenone)oxovanadium (IV) [VO(Br,OH-acph)2]	95%	98%	≤ 2 min	0.633 min		
Cc1ccnc2c1ccc1c(C)ccnc12.O.O.O=S(=O)([O-])[O-].[O]=[V+2] [VO(Me2-phen), (diaqua)(4,7-dimethyl-1,10-phenanthroline)oxovanadium (IV) sulfate]	96%	97%				
O.O=S(=O)([O-])[O-].[O-2].[V+4].c1ccc(-c2ccccn2)nc1.c1ccc(-c2ccccn2)nc1 [VO(bipy)2, (aqua)bis(2,2′-bipyridyl)oxovanadium (IV) sulfate]	26%	40%				
